From US9462803B2, “Organ preservation and/or perfusion” (Philadelphia College of Osteopathic Medicine, priority 2005, dated 2016)
“Also recorded” adds a separate entry of the source. Where no end group is shown, it is not given here.

Key:
[1] = tested on: isolated perfused rat hearts; test: Isolated perfused rat heart ischemia/reperfusion (I/R) cardiac function, with or without PMNs; conditions: for cardioprotection: I/R+PMN
Method: Male Sprague Dawley rats (275-325 g, Ace Animals, Boyertown, Pa.) were anesthetized with 60 mg/kg pentobarbital sodium intraperitoneally (i.p.). Sodium heparin (1,000 U) was also administered i.p. The hearts were rapidly excised, the ascending aortas were cannulated, and retrograde perfusion of the heart was initiated with a modified Krebs buffer maintained at 37° C. at a constant pressure of 80 mmHg. The Krebs buffer had the following composition (in mmol/l): 17 dextrose, 120 NaCl, 25 NaHCO3, 2.5 CaCl2, 0.5 EDTA, 5.9 KCl, and 1.2 MgCl2. The perfusate was aerated with 95% O2 and 5% CO2 and equilibrated at a pH of 7.3-7.4. The two side arms in the perfusion line proximal to the heart inflow cannula allowed PMNs, plasma without PKC ε peptide inhibitor (control hearts) or plasma containing different concentrations of PKC ε peptide inhibitor (1 or 5 μM) to be directly infused into the coronary inflow line. Coronary flow was monitored by a flow meter (T106, Transonic System, Inc., Ithaca, N.Y.). LVDP and +dP/dtmax were monitored using a pressure transducer (SPR-524, Millar Instruments, Inc., Houston, Tex.), which was positioned in the left ventricular cavity. Hearts were immersed in a water-jacketed reservoir containing 160 mL of Krebs buffer maintained at 37° C. Coronary flow, LVDP and +dP/dtmax were recorded using a Powerlab Station acquisition system (ADInstruments, Grand Junction, Colo.) in conjunction with a computer.
LVDP, +dP/dtmax, and coronary flow were measured every 5 min for 15 min to equilibrate the hearts and obtain a baseline measurement. LVDP was defined as left ventricular end-systolic pressure minus left ventricular end-diastolic pressure. After 15 min, the flow of the Krebs buffer was reduced to zero for 20 min to induce global ischemia. At reperfusion, hearts were infused for 5 min with 200×10^6 PMN resuspended in 5 mL of Krebs buffer plus 5 mL of plasma at a rate of 1 mL/min. In some experiments, PKC ε peptide inhibitor (Genemed Synthesis, Inc., San Francisco, Calif.) was added to plasma at a final concentration of 1 or 5 μM. Sham I/R hearts were not subjected to ischemia and were not perfused with PMNs.
The following groups of isolated perfused rat hearts were used:
Group 1: Sham I/R hearts were not subjected to ischemia and were not perfused with PMNs, but were perfused with 5 mL of plasma (1 mL/min) at 35 minutes into perfusion (the same time point that I/R hearts would be given 5 mL of plasma, 15 minutes of baseline recordings plus 20 minutes ischemia). These hearts represented a control group to determine if the isolated rat heart can maintain LVDP and +dP/dtmax throughout the 80-minute protocol (n=6).
Group 2: Sham I/R+PKC ε peptide inhibitor (5 μM) hearts were not subjected to ischemia and not perfused with PMNs. These hearts were administered the PKC ε peptide inhibitor (5 μM, dissolved in plasma from a 5 mM stock in H2O) 35 minutes into perfusion. This group was employed to determine if the PKC ε peptide inhibitor causes a cardiotonic or cardiodepressant effect (n=6).
Group 3: I/R hearts were subjected to 20 min of ischemia and perfused with 5 mL of plasma (1 mL/min) during the first 5 min of reperfusion, but were not perfused with PMNs. These hearts represented a control group to determine if 20 min of ischemia followed by reperfusion stunned the heart, but LVDP and +dP/dtmax will recover to baseline values (initial) by the end of the 45-minute reperfusion period (n=7).
Group 4: I/R+PKC ε peptide inhibitor (5 μM, dissolved in plasma) hearts were subjected to 20 min of ischemia and not perfused with PMNs. These hearts were perfused with 5 mL of plasma+PKC ε peptide inhibitor during the first 5 min of reperfusion. This group was employed to determine if the PKC ε peptide inhibitor causes a cardiodepressant effect in the setting of I/R without PMNs (n=6). […]

rat aortic endothelium = test: NO release from rat aortic endothelium; conditions: basal 2.12±0.39
Method: FIG. 7 is a graph showing NO release from rat aortic endothelium in untreated (basal) segments compared to PKC ε peptide inhibitor treated segments (1, 5, and 10 μM).
FIG. 7 illustrates the NO release from rat aortic endothelium in untreated (basal) segments compared to PKC ε peptide inhibitor treated segments (1-10 μM). Acetylcholine (Ach) (10 μM) was used as a positive control. […] Although augmenting endothelial derived NO is usually associated with cardioprotection following I/R, it is speculated that the enzyme responsible for endothelial NO release (eNOS) may shift its product profile to the production of superoxide release when the substrate (L-arginine) or co-factor (BH4) is not readily available during early reperfusion.

[2] = I/R hearts without PMNs + inhibitor 5 μM
[3] = Sham I/R hearts (no ischemia, no PMNs) + inhibitor 5 μM, end of 80 min perfusion

Substance: PKC ε peptide inhibitor: Peptide inhibitor of PKC ε (Genemed Synthesis); preferred sequence EAVSLKPT (SEQ ID NO: 1), preferably myristoylated at the N-terminus (not fully specified (N-terminus); listed as Homo sapiens)
- change in +dP/dtmax, initial vs final [1, 2]: no significant difference
- change in LVDP, initial vs final [1, 2]: no significant difference
- final LVEDP ([1]; I/R+PMN+inhibitor (5 μM), end of 45 min reperfusion, p<0.01 vs I/R+PMN): 16±2 mmHg
- cardioprotection ([1]; 1 μM dose): not cardioprotective
- cardioprotection ([1]; 5 μM dose): most cardioprotective
- change in +dP/dtmax, initial vs final [1, 3]: did not show any significant change; also recorded: no significant difference
- change in LVDP, initial vs final [1, 3]: did not show any significant change; also recorded: no significant difference
- direct effect on cardiac contractile function ([1]; Sham I/R hearts, 5 μM): no direct effect
- NO release (rat aortic endothelium; 5 μM, p<0.05): 0.66±0.28 pmoles/mg tissue
- NO release (rat aortic endothelium; 10 μM): 0.26±0.42 pmoles/mg tissue
